# Test results published in patent US10335400B2, “Treatment of tauopathies with mGluR5 antagonists” (priority 2014, dated 2019).
# Tests used:
# [1] = system: mixed primary neuronal culture; test: LDH release assay in mixed primary neuronal culture; type: cell-based, mouse; details: 1 mM BMAA, 24 h
# Protocol: Mouse hippocampal neuronal cultures were prepared from d 18 embryos as previously described (1). Briefly, C57BL/6 pregnant female mice from Charles River Laboratories were killed by cervical dislocation. All studies were performed in accordance with the recommendations in the Guide for the Care and Use of Laboratory Animals of the National Institutes of Health (2). The protocol was approved by Institutional Animal Care and Use Committee of the New York Institute for Basic Research in Developmental Disabilities. All surgeries were performed under anesthesia, and all efforts were made to minimize suffering. Embryos were removed and placed in cold Hibernate A (BrainBits, LLC), and all the following steps were performed in ice-cold Hibernate A, under a stereoscopic (dissection) microscope placed in a laminar flow hood. Fetal brains were removed carefully, and forebrains were separated. The hippocampus, including the cortex surrounding the area of the hippocampus, was dissected and cut into small pieces using microsurgical scissors. […]
# [2] = system: tau; test: Tau phosphorylation (Western blots) in metabolically active rat brain slices; type: cell-based; details: 1 mM BMAA, 2-3 h, adult Wistar rat brain slices
# Protocol: (§1) Male Wistar rats (Charles River Laboratories), 2-3 months old, were anesthetized by i.p. injection with 50 mg/kg Nembutal. The animals were decapitated when deeply anesthetized. The brains were removed immediately and cooled in ice-cold (4° C.) oxygenated artificial cerebrospinal fluid (aCSF) consisting of 126 mM NaCl, 3.5 mM KCl, 1.2 mM NaH2PO4, 1.3 mM MgCl2, 2 mM CaCl2, 11 mM D(+) glucose, and 25 mM NaHCO3 (pH 7.4) for 7-8 min. Each brain then was divided sagittally, and 400-μm-thick coronal slices were made with a Camden Vibraslicer (WP, Inc.). The slices were transferred into a chamber containing the oxygenated aCSF and were incubated at 33° C. for 2 h in the presence or absence of 1 mM, β-N ? methylamino-L-alanine (BMAA) dissolved in 10 mM NaHCO3 (Sigma). The oxygenation of the aCSF was carried out by bubbling the solution with a mixture of 95% O2 and 5% CO2 during the entire procedure. At the end of incubation, the brain slices were homogenized with homogenizing buffer [50 mM Tris·HCl (pH 7.4), 8.5% (wt/vol) sucrose, 2 mM EDTA, 2 mM EGTA, 10 mM (3-mercaptoethanol, 5 mM benzamidine, 0.5 mM 4-(2-Aminoethyl) benzenesulfonyl fluoride hydrochloride (AEBSF), 4 μg/mL pepstatin A, and 10 μg/mL each of aprotinin and leupepin] at a ratio of 9.0 mL buffer/1.0 g tissue slices. The homogenates were divided into two parts. One part was centrifuged at 16,000×g for 10 min, and the resulting supernatant was used to assay protein phosphatase 2A (PP2A) activity. Into the other half, an equal volume of phosphatase-inhibitor mixture (20 mM 3-glycerophosphate, 2 mM Na3VO4, and 100 mM NaF) was added immediately, and the samples were used for Western blots.
# (§2) Protein was fractionated by 10% SDS/PAGE, transferred to PVDF membrane, and then blocked with 5% skim milk for 1 h at room temperature. The membrane was probed with anti-IPP2A (5G6, 1:1, 500) (7), anti-I2P2A (10E7, 1:1, 600) (7), anti-tau ˜92e; 1:5,000) (8), anti-tau (R134d; 1:5 000) (9), anti-tau pSer^262/^356 (12E8; 1:500) (10, anti-tau pSer^199, anti-tau pThr^205, anti-tau pThr^212, and pSer^396 (1:1,000) (Biosource), anti-GAPDH (1:2,000) (Santa Cruz Biotechnology), anti-PP2Ac (1:10 000) (BD Transduction Lab), anti pY^307-PP2A and anti-DML^309-PP2A (1:1,000) (Millipore), anti-GSK-3(α/β), anti-pS^9-GSK-3 β, anti-ERK1/2, anti-pT^202/Y^204-ERK1/2, anti-MEK1/2, anti-p9^17/221-MEK1/2, anti-CAMKII, anti-pT^286-CAMKII, anti-p70 S6 kinase, anti-pT^389-p70 S6 kinase, anti-SAPK/JNK, and anti-pT^183/Y^185-SAPK/JNK (1:1,000) (Cell Signaling Technology). The membrane then was incubated with HRP-conjugated secondary antibody (Jackson ImmunoResearch). The protein bands were detected with the enhanced chemiluminescence reagents (Thermo Scientific). Band intensity was measured by Multi-Gauge V3 software (Fuji Photo Film).
# [3] = system: PP2A regulated protein kinases; test: Phosphorylated PP2A regulated protein kinases by Western blots in rat brain slices; type: cell-based; details: BMAA-treated rat brain slices (1 mM, 2 h)
# Protocol: as §1, §2
# [4] = target: T1, mGluR5-PP2A complex (Mus musculus, UniProt Q3UVX5); test: Coimmunoprecipitation of PP2Ac with mGluR5 in primary neurons; type: cell-based; details: primary neuronal cultures, 1 mM BMAA
# T1 construct: endogenous in cells; host or cells: mouse primary hippocampal neuronal cultures
# T1 sequence (Q3UVX5 19-1203, one chain of several): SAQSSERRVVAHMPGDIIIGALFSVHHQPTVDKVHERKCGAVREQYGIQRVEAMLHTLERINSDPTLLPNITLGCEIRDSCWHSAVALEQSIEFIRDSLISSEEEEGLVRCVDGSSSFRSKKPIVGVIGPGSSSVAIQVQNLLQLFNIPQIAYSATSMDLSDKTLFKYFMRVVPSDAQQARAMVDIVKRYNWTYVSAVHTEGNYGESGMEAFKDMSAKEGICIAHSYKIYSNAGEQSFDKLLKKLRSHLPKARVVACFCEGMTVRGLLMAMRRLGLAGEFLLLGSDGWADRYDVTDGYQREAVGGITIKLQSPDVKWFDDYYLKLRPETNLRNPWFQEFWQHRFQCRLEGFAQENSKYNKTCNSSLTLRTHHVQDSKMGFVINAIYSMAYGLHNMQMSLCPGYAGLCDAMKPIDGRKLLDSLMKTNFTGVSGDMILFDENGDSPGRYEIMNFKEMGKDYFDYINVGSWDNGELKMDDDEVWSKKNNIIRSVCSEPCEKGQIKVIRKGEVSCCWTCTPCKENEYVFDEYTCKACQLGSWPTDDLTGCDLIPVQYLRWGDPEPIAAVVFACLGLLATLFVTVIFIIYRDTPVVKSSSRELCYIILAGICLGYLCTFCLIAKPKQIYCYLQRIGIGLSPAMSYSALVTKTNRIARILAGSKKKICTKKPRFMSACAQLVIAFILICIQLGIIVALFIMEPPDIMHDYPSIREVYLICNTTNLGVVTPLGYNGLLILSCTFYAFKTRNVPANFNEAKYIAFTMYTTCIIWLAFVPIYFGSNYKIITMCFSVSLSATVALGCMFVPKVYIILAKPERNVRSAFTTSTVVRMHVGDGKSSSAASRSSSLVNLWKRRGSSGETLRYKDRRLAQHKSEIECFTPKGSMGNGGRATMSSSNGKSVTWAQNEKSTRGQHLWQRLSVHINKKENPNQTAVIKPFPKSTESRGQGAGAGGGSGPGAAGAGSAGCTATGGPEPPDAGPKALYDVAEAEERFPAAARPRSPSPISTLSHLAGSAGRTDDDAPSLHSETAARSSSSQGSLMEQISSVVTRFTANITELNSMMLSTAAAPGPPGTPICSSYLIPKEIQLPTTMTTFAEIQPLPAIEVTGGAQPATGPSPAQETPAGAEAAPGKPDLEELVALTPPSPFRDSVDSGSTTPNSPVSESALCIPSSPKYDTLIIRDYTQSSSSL
# Protocol: Mouse hippocampal cell proteins were prepared with low-stringency lysis buffer [50 mM Hepes (pH 7.4), 10% (vol/vol) glycerol, 1.5 mM MgCl2, 5 mM NaF, 1 mM Na3VO4, 1 mM EDTA, 1 mM EGTA, 1% Nonidet P-40, 5 mM AEBSF, 10 μg/mL aprotinin, leupeptin, pepstatin] and were homogenized by several freeze-thaw cycles followed by water bath sonication. The homogenate was centrifuged at 14,000×g at 4° C. for 15 min. For transfection experiments with vector (DsRed) and with DsRed-PP2A catalytic subunit (PP2Ac), primary neurons were processed in a similar manner. The supernatants then were used for immunoprecipitation with mouse anti-PP2A (1D6; Millipore) followed by incubation with protein G-Sepharose (Thermo Scientific). The Western blots of immunoprecipitates were probed with rabbit anti-mGluR5 (Millipore) and rabbit anti-PP2Ac [R123d] (FIG. 55).
# [5] = system: motor neurons; details: cited from earlier work
compound,measurement,setting,value
"CNC[C@H](N)C(=O)O [BMAA, β-N-methylamino-L-alanine]",cell death (LDH release),[1],caused cell death
same,increase in phosphorylation of tau at Ser199,[2],2.6 fold
same,increase in phosphorylation of tau at Ser262/356,[2],3.4 fold
same,increase in phosphorylation of tau at Thr205,[2],1.8 fold
same,increase in phosphorylation of tau at Thr212,[2],3.7 fold
same,phosphorylation of tau at Ser396,[2],not any significant change
same,level of phosphorylated GSK-3β,[3],no significant changes
same,level of phosphorylated JNK,[3],no significant changes
same,level of phosphorylated p70 S6 kinase,[3],no significant changes
same,level of phosphorylated/activated CaMKII,[3],increased noticeably
same,level of phosphorylated/activated ERK1/2,[3],increased noticeably
same,level of phosphorylated/activated MEK1/2,[3],increased noticeably
same,association of PP2Ac with mGluR5,[4],led to the dissociation
same,BMAA concentration causing selective death of motor neurons,[5],≥ 30 µM
